3 molecules from BindingDB's records for doi:10.1016/j.bmc.2019.03.049 (Zhuhai Campus of Zunyi Medical University, 2019) can be followed below.

For the test, the target named is Hepatocyte growth factor receptor (Homo sapiens) (UniProt P08581). As to the kind of experiment: Inhibition of c-MET (unknown origin) using FAM-labelled peptide as substrate measured after 10 mins by mobility shift assay.
Chain of Hepatocyte growth factor receptor (Homo sapiens) (P08581 whole entry, looked up): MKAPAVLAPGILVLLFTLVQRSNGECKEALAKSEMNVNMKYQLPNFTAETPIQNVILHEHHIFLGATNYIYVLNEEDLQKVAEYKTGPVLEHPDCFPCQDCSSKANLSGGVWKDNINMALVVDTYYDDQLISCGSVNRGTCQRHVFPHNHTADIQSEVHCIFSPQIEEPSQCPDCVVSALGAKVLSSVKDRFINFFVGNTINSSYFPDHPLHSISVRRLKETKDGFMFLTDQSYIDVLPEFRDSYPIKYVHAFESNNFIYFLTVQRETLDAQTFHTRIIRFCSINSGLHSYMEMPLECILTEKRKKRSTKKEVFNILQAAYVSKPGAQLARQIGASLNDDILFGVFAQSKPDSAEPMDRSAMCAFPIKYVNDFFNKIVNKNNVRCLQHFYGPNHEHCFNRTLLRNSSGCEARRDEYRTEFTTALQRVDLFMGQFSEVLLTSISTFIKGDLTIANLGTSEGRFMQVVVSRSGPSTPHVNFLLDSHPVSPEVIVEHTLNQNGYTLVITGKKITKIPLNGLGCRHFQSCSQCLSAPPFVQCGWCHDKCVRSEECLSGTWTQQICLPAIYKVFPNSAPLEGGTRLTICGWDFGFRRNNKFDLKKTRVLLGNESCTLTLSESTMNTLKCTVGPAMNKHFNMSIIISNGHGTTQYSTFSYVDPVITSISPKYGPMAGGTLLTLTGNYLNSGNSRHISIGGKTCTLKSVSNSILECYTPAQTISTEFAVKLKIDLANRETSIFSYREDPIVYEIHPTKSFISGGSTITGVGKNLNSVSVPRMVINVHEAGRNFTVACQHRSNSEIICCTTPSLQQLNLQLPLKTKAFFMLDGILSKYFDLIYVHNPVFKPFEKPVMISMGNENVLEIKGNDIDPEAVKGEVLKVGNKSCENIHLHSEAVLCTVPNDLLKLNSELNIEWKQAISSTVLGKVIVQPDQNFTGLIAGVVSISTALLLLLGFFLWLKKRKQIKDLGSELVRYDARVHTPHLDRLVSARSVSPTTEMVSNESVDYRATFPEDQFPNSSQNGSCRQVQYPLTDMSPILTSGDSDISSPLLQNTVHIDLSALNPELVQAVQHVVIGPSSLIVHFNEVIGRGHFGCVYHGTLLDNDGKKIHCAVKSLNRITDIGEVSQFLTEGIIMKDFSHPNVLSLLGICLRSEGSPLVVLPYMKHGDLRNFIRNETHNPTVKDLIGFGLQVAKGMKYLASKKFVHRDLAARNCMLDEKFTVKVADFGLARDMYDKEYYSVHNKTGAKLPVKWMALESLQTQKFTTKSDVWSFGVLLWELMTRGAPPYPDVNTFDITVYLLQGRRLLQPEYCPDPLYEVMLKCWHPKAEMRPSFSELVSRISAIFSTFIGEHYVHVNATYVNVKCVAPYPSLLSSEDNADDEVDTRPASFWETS

`COc1cc2c(Oc3ccc(C4SCC(=O)N4NC(=O)Nc4ccccc4)cc3)ccnc2cc1OCCCN1CCOCC1` (stereo not drawn): the IC50 (usually the concentration at which inhibition is half-maximal) was found to be 4.52 µM.
With `COc1cc2c(Oc3ccc(C4SCC(=O)N4NC(=O)Nc4ccc(F)cc4)cc3)ccnc2cc1OCCCN1CCOCC1` (stereo not drawn) the figure was 4.3 µM; with `COc1cc2c(Oc3ccc(C4SCC(=O)N4NC(=O)Nc4ccc(F)cc4F)cc3)ccnc2cc1OCCCN1CCOCC1` (stereo not drawn), 3.35 µM.
